Data: patent US9670147B2, “Antioxidant inflammation modulators: oleanolic acid derivatives with amino and other modifications at C-17” (REATA PHARMACEUTICALS, INC., priority 2008, dated 2017)

Assays:
RAW264.7 macrophages = experiment: Cell viability, WST-1 reagent; type: cell-based, mouse; settings: Mus musculus, 2 h pre-treatment, then 20 ng/ml IFNγ for 24 hours
Procedure: (§1) FIGS. 1-34. Inhibition of NO Production. RAW264.7 macrophages were pre-treated with DMSO or drugs at various concentrations (nM) for 2 hours, then treated with 20 ng/ml IFNγ for 24 hours. NO concentration in media was determined using the Griess reagent system; cell viability was determined using WST-1 reagent. FIGS. 49-52. Inhibition of NO Production. RAW264.7 macrophages were pre-treated with DMSO or drugs at various concentrations (nM) for 2 hours, then treated with 20 ng/ml IFNγ for 24 hours. NO concentration in media was determined using the Griess reagent system; cell viability was determined using WST-1 reagent. RAW264.7 macrophages were pre-treated with DMSO or drugs for 2 hours, then treated with recombinant mouse IFNγ (Sigma) for 24 hours. NO concentration in media was determined using the Griess reagent system (Promega). Cell viability was determined using WST-1 reagent (Roche).

[1] = test system: IFNγ-induced NO production in RAW264.7 macrophages; experiment: Suppression of IFNγ-induced NO production (Griess reagent); type: cell-based, mouse; settings: Mus musculus, 2 h pre-treatment, then 20 ng/ml IFNγ for 24 hours
Procedure: as §1

SMILES	IC50 [1]	IC50 (RAW264.7 macrophages)
CC1(C)CC[C@]2(NC(=O)Nc3ccc(O)cc3)CC[C@]3(C)[C@H](C(=O)C=C4[C@@]5(C)C=C(C#N)C(=O)C(C)(C)[C@@H]5CC[C@]43C)[C@@H]2C1 [Compound 63148, 1-((4aS,6aR,6bS,8aR,12aS,14aR,14bS)-11-cyano-2,2,6a,6b,9,9,12a-heptamethyl-10,14-dioxo-1,2,3,4,4a,5,6,6a,6b,7,8,8a,9,10,12a,14,14a,14b-octadecahydropicen-4a-yl)-3-(4-hydroxyphenyl)urea]	~25 nM	> 200 nM
CC1(C)CC[C@]2(NC(=O)Nc3ccccc3)CC[C@]3(C)[C@H](C(=O)C=C4[C@@]5(C)C=C(C#N)C(=O)C(C)(C)[C@@H]5CC[C@]43C)[C@@H]2C1 [Compound 63249, 1-((4aS,6aR,6bS,8aR,12aS,14aR,14bS)-11-cyano-2,2,6a,6b,9,9,12a-heptamethyl-10,14-dioxo-1,2,3,4,4a,5,6,6a,6b,7,8,8a,9,10,12a,14,14a,14b-octadecahydropicen-4a-yl)-3-phenylurea]		50 nM
CC1(C)CC[C@]2(NCC#N)CC[C@]3(C)[C@H](C(=O)C[C@@H]4[C@@]5(C)C=C(C#N)C(=O)C(C)(C)[C@@H]5CC[C@]43C)[C@@H]2C1 [Compound 63222, (4aR,6aR,6bR,8aS,12aS,12bR,14aR,14bR)-8a-(cyanomethylamino)-4,4,6a,6b,11,11,14b-heptamethyl-3,13-dioxo-3,4,4a,5,6,6a,6b,7,8,8a,9,10,11,12,12a,12b,13,14,14a,14b-icosahydropicene-2-carbonitrile]	~45 nM	> 200 nM
CC1(C)CC[C@]2(NC(=O)N3CCCCC3)CC[C@]3(C)[C@H](C(=O)C=C4[C@@]5(C)C=C(C#N)C(=O)C(C)(C)[C@@H]5CC[C@]43C)[C@@H]2C1 [Compound 63181, N-((4aS,6aR,6bS,8aR,12aS,14aR,14bS)-11-cyano-2,2,6a,6b,9,9,12a-heptamethyl-10,14-dioxo-1,2,3,4,4a,5,6,6a,6b,7,8,8a,9,10,12a,14,14a,14b-octadecahydropicen-4a-yl)piperidine-1-carboxamide]	4 to 8 nM	75 nM
CNC(=O)N[C@]12CCC(C)(C)C[C@H]1[C@H]1C(=O)C[C@@H]3[C@@]4(C)C=C(C#N)C(=O)C(C)(C)[C@@H]4CC[C@@]3(C)[C@]1(C)CC2 [Compound 63327, 1-((4aS,6aR,6bR,8aR,12aR,12bR,14aR,14bS)-11-cyano-2,2,6a,6b,9,9,12a-heptamethyl-10,14-dioxo-1,2,3,4,4a,5,6,6a,6b,7,8,8a,9,10,12a,12b,13,14,14a,14b-icosahydropicen-4a-yl)-3-methylurea]	~100 nM	
CN(C)[C@]12CCC(C)(C)C[C@H]1[C@H]1C(=O)C=C3[C@@]4(C)C=C(C#N)C(=O)C(C)(C)[C@@H]4CC[C@@]3(C)[C@]1(C)CC2 [Compound 63245, (4aR,6aS,6bR,8aS,12aS,12bR,14bS)-8a-(dimethylamino)-4,4,6a,6b,11,11,14b-heptamethyl-3,13-dioxo-3,4,4a,5,6,6a,6b,7,8,8a,9,10,11,12,12a,12b,13,14b-octadecahydropicene-2-carbonitrile]	33 nM	> 200 nM
CC1(C)CC[C@]2(NC(=O)c3ccccc3)CC[C@]3(C)[C@H](C(=O)C=C4[C@@]5(C)C=C(C#N)C(=O)C(C)(C)[C@@H]5CC[C@]43C)[C@@H]2C1 [Compound 63182, N-((4aS,6aR,6bS,8aR,12aS,14aR,14bS)-11-cyano-2,2,6a,6b,9,9,12a-heptamethyl-10,14-dioxo-1,2,3,4,4a,5,6,6a,6b,7,8,8a,9,10,12a,14,14a,14b-octadecahydropicen-4a-yl)benzamide]	7 to 13 nM	125 nM
CC1(C)CC[C@]2(NC(N)=O)CC[C@]3(C)[C@H](C(=O)C=C4[C@@]5(C)C=C(C#N)C(=O)C(C)(C)[C@@H]5CC[C@]43C)[C@@H]2C1 [Compound 63176, 1-((4aS,6aR,6bS,8aR,12aS,14aR,14bS)-11-cyano-2,2,6a,6b,9,9,12a-heptamethyl-10,14-dioxo-1,2,3,4,4a,5,6,6a,6b,7,8,8a,9,10,12a,14,14a,14b-octadecahydropicen-4a-yl)urea]	100 nM	> 200 nM
CC1(C)CC[C@]2(NC(=O)OC3CCOC3)CC[C@]3(C)[C@H](C(=O)C[C@@H]4[C@@]5(C)C=C(C#N)C(=O)C(C)(C)[C@@H]5CC[C@]43C)[C@@H]2C1 (stereo partly drawn) [Compound 63265, tetrahydrofuran-3-yl(4aS,6aR,6bR,8aR,12aR,12bR,14aR,14bS)-11-cyano-2,2,6a,6b,9,9,12a-heptamethyl-10,14-dioxo-1,2,3,4,4a,5,6,6a,6b,7,8,8a,9,10,12a,12b,13,14,14a,14b-icosahydropicen-4a-ylcarbamate]	~100 nM	> 200 nM
CCNC(=O)N[C@]12CCC(C)(C)C[C@H]1[C@H]1C(=O)C=C3[C@@]4(C)C=C(C#N)C(=O)C(C)(C)[C@@H]4CC[C@@]3(C)[C@]1(C)CC2 [Compound 63173, 1-((4aS,6aR,6bS,8aR,12aS,14aR,14bS)-11-cyano-2,2,6a,6b,9,9,12a-heptamethyl-10,14-dioxo-1,2,3,4,4a,5,6,6a,6b,7,8,8a,9,10,12a,14,14a,14b-octadecahydropicen-4a-yl)-3-ethylurea]	31 nM	> 200 nM
C=CCOC(=O)N[C@]12CCC(C)(C)C[C@H]1[C@H]1C(=O)C=C3[C@@]4(C)C=C(C#N)C(=O)C(C)(C)[C@@H]4CC[C@@]3(C)[C@]1(C)CC2 [Compound 63186, allyl-(4aS,6aR,6bS,8aR,12aS,14aR,14bS)-11-cyano-2,2,6a,6b,9,9,12a-heptamethyl-10,14-dioxo-1,2,3,4,4a,5,6,6a,6b,7,8,8a,9,10,12a,14,14a,14b-octadecahydropicen-4a-ylcarbamate]	3 to 6 nM	100 nM
CC(=O)N[C@]12CCC(C)(C)C[C@H]1[C@H]1C(=O)C[C@@H]3[C@@]4(C)C=C(C#N)C(=O)C(C)(C)[C@@H]4CC[C@@]3(C)[C@]1(C)CC2 [Compound 63321, N-((4aS,6aR,6bR,8aR,12aR,12bR,14aR,14bS)-11-cyano-2,2,6a,6b,9,9,12a-heptamethyl-10,14-dioxo-1,2,3,4,4a,5,6,6a,6b,7,8,8a,9,10,12a,12b,13,14,14a,14b-icosahydropicen-4a-yl)acetamide]	~70 nM	
CC1(C)CC[C@]2(NC(=O)C(F)(F)F)CC[C@]3(C)[C@H](C(=O)C[C@@H]4[C@@]5(C)C=C(C#N)C(=O)C(C)(C)[C@@H]5CC[C@]43C)[C@@H]2C1 [Compound 63322, N-((4aS,6aR,6bR,8aR,12aR,12bR,14aR,14bS)-11-cyano-2,2,6a,6b,9,9,12a-heptamethyl-10,14-dioxo-1,2,3,4,4a,5,6,6a,6b,7,8,8a,9,10,12a,12b,13,14,14a,14b-icosahydropicen-4a-yl)-2,2,2-trifluoroacetamide]	~50 nM	

Further lines, with some results ahead:

IC50 [1]	SMILES	IC50 (RAW264.7 macrophages)
10 nM	CC1(C)CC[C@]2(NC(=O)Cc3ccccc3)CC[C@]3(C)[C@H](C(=O)C=C4[C@@]5(C)C=C(C#N)C(=O)C(C)(C)[C@@H]5CC[C@]43C)[C@@H]2C1 [Compound 63244, N-((4aS,6aR,6bS,8aR,12aS,14aR,14bS)-11-cyano-2,2,6a,6b,9,9,12a-heptamethyl-10,14-dioxo-1,2,3,4,4a,5,6,6a,6b,7,8,8a,9,10,12a,14,14a,14b-octadecahydropicen-4a-yl)-2-phenylacetamide]	200 nM
6.8 nM	CC1(C)CC[C@]2(NC(=O)n3cccn3)CC[C@]3(C)[C@H](C(=O)C=C4[C@@]5(C)C=C(C#N)C(=O)C(C)(C)[C@@H]5CC[C@]43C)[C@@H]2C1 [Compound 63178, N-((4aS,6aR,6bS,8aR,12aS,14aR,14bS)-11-cyano-2,2,6a,6b,9,9,12a-heptamethyl-10,14-dioxo-1,2,3,4,4a,5,6,6a,6b,7,8,8a,9,10,12a,14,14a,14b-octadecahydropicen-4a-yl)-1H-pyrazole-1-carboxamide]	80 nM
16 nM	CC1(C)CC[C@]2(NC(=O)CC(F)(F)F)CC[C@]3(C)[C@H](C(=O)C=C4[C@@]5(C)C=C(C#N)C(=O)C(C)(C)[C@@H]5CC[C@]43C)[C@@H]2C1 [Compound 63179, N-((4aS,6aR,6bS,8aR,12aS,14aR,14bS)-11-cyano-2,2,6a,6b,9,9,12a-heptamethyl-10,14-dioxo-1,2,3,4,4a,5,6,6a,6b,7,8,8a,9,10,12a,14,14a,14b-octadecahydropicen-4a-yl)-3,3,3-trifluoropropanamide]	100 nM
~120 nM	CC1(C)CC[C@]2(NC(=O)C3CC3)CC[C@]3(C)[C@H](C(=O)C[C@@H]4[C@@]5(C)C=C(C#N)C(=O)C(C)(C)[C@@H]5CC[C@]43C)[C@@H]2C1 [Compound 63236, N-((4aS,6aR,6bR,8aR,12aR,12bR,14aR,14bS)-11-cyano-2,2,6a,6b,9,9,12a-heptamethyl-10,14-dioxo-1,2,3,4,4a,5,6,6a,6b,7,8,8a,9,10,12a,12b,13,14,14a,14b-icosahydropicen-4a-yl)cyclopropanecarboxamide]	> 200 nM
~25 nM	COC(=O)N[C@]12CCC(C)(C)C[C@H]1[C@H]1C(=O)C[C@@H]3[C@@]4(C)C=C(C#N)C(=O)C(C)(C)[C@@H]4CC[C@@]3(C)[C@]1(C)CC2 [Compound 63328, methyl (4aS,6aR,6bR,8aR,12aR,12bR,14aR,14bS)-11-cyano-2,2,6a,6b,9,9,12a-heptamethyl-10,14-dioxo-1,2,3,4,4a,5,6,6a,6b,7,8,8a,9,10,12a,12b,13,14,14a,14b-icosahydropicen-4a-ylcarbamate]	
